Patent US20110081362A1, “TREATMENT OF CANCER” (THE BRIGHAM AND WOMEN'S HOSPITAL, INC., priority 2008, published 2011)
Where a SMILES comes first, the peptide text is derived from it. The star is where a group is joined. Cbz = O=C(OCc1ccccc1)*

How the values were obtained:
Assay type in all cases: cell-based, human
[1] = tested on: DLD-1 Ras Mut cells vs DLD-1 Ras WT cells; experiment: Competition assay, GFP-labeled Ras Mut vs Ras WT cells, FACS; details: for Viability/fitness of Ras Mut cells after transient treatment: DLD-1, 24 hours treatment, drug washed out, 3 additional days before FACS; for Fitness of Ras Mut cells relative to Ras WT cells (synthetic lethality with mutant Ras): DLD-1 isogenic pair, drug present for 4-5 days
Method: E. Schematic of the competition assay used to validate shRNAs from the primary screen. Ras Mut cells expressing GFP and Ras WT cells were mixed and co-infected with the same retroviral shRNA. The Mut to WT cell ratio at the end of the experiment is measured by FACS. The percentage of Ras Mut cells in the mixture infected with a candidate RSL shRNA was normalized against that of a control shRNA targeting firefly luciferase (FF) within the same experiment to generate a normalized fitness score for the Ras Mut cells. Variations of this assay are also used to test the effect of siRNAs and chemical inhibitors.
Next, a competition assay was devised to test the reproducibility of candidate RSL shRNAs from the primary screen (Torrance et al., 2001; Smogorzewska et al., 2007). Individual shRNAs were packaged into retroviruses and infected into a 50:50 mixture of GFP+ DLD-1 Ras Mut cells and GFP (colorless) DLD-1 Ras WT cells. The relative ratio of Ras Mut versus WT cells at ˜7 days post shRNA infection was analyzed by FACS and compared to that of a mixed population infected with a negative control shRNA targeting luciferase (FIG. 8E). […] To rule out cell-line specific effect of candidate RSL shRNAs, candidates were tested using the competition assay in a second isogenic pair of colorectal cancer cell lines: HCT116 KRAS WT/G13D and HCT116 KRAS WT/−, which were derived with a similar method as the DLD-1 isogenic pair (Shirasawa et al., 1993; Torrance et al., 2001).
The competition assay used to test candidate genes from the screen was modified from a previous protocol (Torrance et al., 2001; Smogorzewska et al., 2007) and was carried out in 96-well plates in independent triplicates. For this assay, 1,000 each of GFP-labeled Ras Mut and unlabeled Ras WT cells were seeded in each well. For retroviral shRNA infection, cells were infected at an MOI of 1-5, selected for 3 days with puromycin and propagated for an additional 4-5 days before analyzed by FACS. An shRNA targeting firefly luciferase (shRNA-FF) was used as the negative control. For siRNA transfection, cells were transfected with siGenome siRNAs (Dharmacon) using Lipofectamine RNAiMAX (InVitrogen) and analyzed by FACS 5-6 days post transfection An siRNA targeting luciferase (Luc) was used as the negative control. […] Untreated wells were used as negative controls. To obtain normalized fitness of Ras Mut cells that can be compared across experiments, the percentage of Ras Mut cells in each sample was normalized to that in the control samples of that experiment.

[2] = tested on: HCT116 Ras Mut cells vs HCT116 Ras WT cells; experiment: as above; details: HCT116 isogenic pair; drug present for 4-5 days
Method: Next, a competition assay was devised to test the reproducibility of candidate RSL shRNAs from the primary screen (Torrance et al., 2001; Smogorzewska et al., 2007). Individual shRNAs were packaged into retroviruses and infected into a 50:50 mixture of GFP+ DLD-1 Ras Mut cells and GFP (colorless) DLD-1 Ras WT cells. The relative ratio of Ras Mut versus WT cells at ˜7 days post shRNA infection was analyzed by FACS and compared to that of a mixed population infected with a negative control shRNA targeting luciferase (FIG. 8E). […] Without wishing to be bound by theory, a possible cause for the higher false positive rate in the primary screen might due to the fact that for the synthetic lethal analysis the difference between two microarray datasets is extracted and coupled with the fact that the secondary assay is much shorter than the original discovery assay. To rule out cell-line specific effect of candidate RSL shRNAs, candidates were tested using the competition assay in a second isogenic pair of colorectal cancer cell lines: HCT116 KRAS WT/G13D and HCT116 KRAS WT/−, which were derived with a similar method as the DLD-1 isogenic pair (Shirasawa et al., 1993; Torrance et al., 2001).
The competition assay used to test candidate genes from the screen was modified from a previous protocol (Torrance et al., 2001; Smogorzewska et al., 2007) and was carried out in 96-well plates in independent triplicates. For this assay, 1,000 each of GFP-labeled Ras Mut and unlabeled Ras WT cells were seeded in each well. For retroviral shRNA infection, cells were infected at an MOI of 1-5, selected for 3 days with puromycin and propagated for an additional 4-5 days before analyzed by FACS. An shRNA targeting firefly luciferase (shRNA-FF) was used as the negative control. For siRNA transfection, cells were transfected with siGenome siRNAs (Dharmacon) using Lipofectamine RNAiMAX (InVitrogen) and analyzed by FACS 5-6 days post transfection An siRNA targeting luciferase (Luc) was used as the negative control. For drug treatment, cells were treated with drugs for 4-5 days prior to FACS analysis. Untreated wells were used as negative controls. To obtain normalized fitness of Ras Mut cells that can be compared across experiments, the percentage of Ras Mut cells in each sample was normalized to that in the control samples of that experiment.

[3] = tested on: DLD-1 Ras Mut and Ras WT cells; experiment: Cell cycle and mitotic stage analysis (FACS, phospho-H3 Ser10, microscopy); details: for G2/M arrest, Ras Mut vs Ras WT cells: DLD-1, synthetic lethal concentration of drug; for Prometaphase arrest of mitotic cells: DLD-1 Ras Mut vs Ras WT
Method: (§1) For cell cycle analysis, cells were ethanol fixed and stained with PI and analyzed using a BD LSR II FACS analyzer (BD Bioscience). Data analysis was carried out with BD FACS Diva and FlowJo softwares. Cell cycle synchronization by double thymidine block was based on a previous protocol (Steegmaier et al., 2007). Briefly, cells were arrested with two rounds of 20-hour thymidine (2.5 mM) treatment approximately 12 hours apart and released into mitosis. […] For one-step arrest in G2/M or in prometaphase, cells were treated overnight with either RO-3306 (10 μM) or the Eg5 kinesin inhibitor monastrol (100 μM), respectively. For mitotic entry experiments, cells were synchronized in RO-3306 (10 uM) overnight prior to release. For mitotic release experiments, cells were released from overnight synchronization in RO-3306 (10 uM) into nocodazole ([…]) for 4 hours and mitotic cells were collected by mitotic shake-off. Cells were then release by washing out the nocodazole. For the analysis of lagging chromosomes and mitotic index by microscopy, cells seeded onto coverslips were arrested in mitosis with 100 μM monastrol for 16 hours. Cells were washed and released into fresh media and were fixed at ten minute intervals for two hours in PHEM buffer+2% formaldehyde+0.5% triton-X100. Cells were immunostained with DAPI to visualized DNA and antibodies to phospho-histone H3 Ser10 (pH3S10) and to α-tubulin to identify mitotic cells at different stages. Independent triplicates with >100 cells per replicate were analyzed. For measuring mitotic index by FACS, cells were trypsinized, fixed with ethanol and stained with PI and pH3S10 antibody.

[4] = tested on: HCT116 Ras Mut and Ras WT cells
Method: as §1, with “Cells were immunostained with DAPI to visualized DNA and antibodies to phospho-histone H3 Ser10 (pH3S10) and to α-tubulin to identify mitotic cells at different stages.” left out, “For measuring mitotic index by FACS, cells were trypsinized, fixed with ethanol and stained with PI and pH3S10 antibody.” left out

[5] = tested on: DLD-1 PI3K Mut cells vs PI3K WT cells; experiment: Competition assay, PI3K Mut vs PI3K WT cells; details: DLD-1 isogenic for the PI3K oncogene
[6] = tested on: HCT116 PI3K Mut cells vs PI3K WT cells; experiment: Competition assay, PI3K Mut vs PI3K WT cells; details: HCT116 isogenic for the PI3K oncogene

Structure (SMILES) | Viability/fitness of Ras Mut cells after transient treatment [1] | Fitness of Ras Mut cells relative to Ras WT cells (synthetic lethality with mutant Ras) [1] | Fitness of Ras Mut cells relative to Ras WT cells (synthetic lethality with mutant Ras) [2] | G2/M arrest, Ras Mut vs Ras WT cells [3] | Prometaphase arrest of mitotic cells [3] | Cell cycle accumulation of Ras Mut cells by FACS [4] | Fitness of PI3K Mut cells vs PI3K WT cells [5] | Fitness of PI3K Mut cells vs PI3K WT cells [6]
CC(C)C[C@@H](C=O)NC(=O)[C@H](CC(C)C)NC(=O)[C@H](CC(C)C)NC(=O)OCc1ccccc1 [MG132] (Cbz-Leu-Leu-Leu-aldehyde) | sufficient to selectively impair the viability of Ras Mut cells | selectively decreased the fitness of DLD-1 Ras Mut cells in a dose dependent fashion | selectively decrease the fitness of HCT116 Ras Mut cells | more sensitive | more profound prometaphase block of the Ras Mut cells | preferentially induce the accumulation of Ras Mut HCT116 cells | more resistant to these inhibitors relative to DLD-1 PI3K WT cells | very little difference
N#CC(=C(/N)Sc1ccccc1N)/C(C#N)=C(\N)Sc1ccccc1N [U0126] |  | At no concentration of these drugs was selective toxicity towards Ras Mut cells compared to Ras WT cells observed |  |  |  |  |  | 
CC(C)C[C@H](NC(=O)[C@H](Cc1ccccc1)NC(=O)c1cnccn1)B(O)O [bortezomib] | sufficient to selectively impair the viability of Ras Mut cells | selectively decreased the fitness of DLD-1 Ras Mut cells in a dose dependent fashion | selectively decrease the fitness of HCT116 Ras Mut cells | more sensitive | more profound prometaphase block of the Ras Mut cells | preferentially induce the accumulation of Ras Mut HCT116 cells | more resistant to these inhibitors relative to DLD-1 PI3K WT cells | very little difference
COC(=O)Nc1nc2ccc(C(=O)c3cccs3)cc2[nH]1 [nocodazole] |  | no synthetic lethality with mutant Ras | no synthetic lethality with mutant Ras |  |  |  |  | 
CC(=O)O[C@H]1C(=O)[C@@]2(C)[C@H]([C@H](OC(=O)c3ccccc3)[C@]3(O)C[C@H](OC(=O)[C@H](O)[C@@H](NC(=O)c4ccccc4)c4ccccc4)C(C)=C1C3(C)C)[C@]1(OC(C)=O)CO[C@@H]1C[C@@H]2O [paclitaxel] | sufficient to selectively impair the viability of Ras Mut cells | increased sensitivity | increased sensitivity | strong G2/M arrest in Ras Mut cells but not in Ras WT cells | striking pro-metaphase block in the Ras mutant cells |  | more resistant to these inhibitors relative to DLD-1 PI3K WT cells | very little difference
